Assay results as given in US10954252B1, “Inhibitors of human immunodeficiency virus replication” (ViiV HEALTHCARE UK (NO.5) LIMITED, priority 2017, dated 2021).
pEC50: −log10 of the molar value.

Key:
[1] = Compound cytotoxicity, XTT-based colorimetric assay; assay type: cell-based
Summary of the method: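 XTT colorimetric read-out on day 4 gave CC50 values, using MT2 cells left uninfected but otherwise handled as in the antiviral assay.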

[2] = tested on: recombinant NL4-3 virus (nef section replaced with Renilla luciferase gene) in MT-2 cells; test: HIV cell culture assay (antiviral activity, luciferase readout); assay type: cell-based; settings: MT-2 cells infected for 4-5 days with recombinant NL4-3 luciferase virus
Summary of the method: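 Serially diluted compounds were present throughout a 4-5 day infection of MT-2 cells by recombinant NL4-3 whose nef region partly encodes Renilla luciferase. Antiviral activity was taken from live-cell luciferase signal, with the 50% effective concentration fitted by the exponential median effect equation.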

[3] = human, uninfected MT2 cells, Table 1a, day 4, XTT
[4] = human, uninfected MT2 cells, Table 1, day 4, XTT

| Compound | CC50 at 4 days [1, 3] [nM] | pEC50 ([2]; Renilla, NL43, Table 1a) | other results |
| --- | --- | --- | --- |
| Cn1nc(NS(C)(=O)=O)c2c(Cl)ccc(-n3c([C@H](Cc4cc(F)cc(F)c4)NC(=O)Cn4nc(C(F)F)c5c4C(F)(F)[C@@H]4C[C@H]54)nc4cc(CS(C)(=O)=O)ccc4c3=O)c21 (mixture of isomers) [Example 201, N—((S)-1-(3-(4-chloro-1-methyl-3-(methylsulfonamido)-1H-indazol-7-yl)-7-((methylsulfonyl)methyl)-4-oxo-3,4-dihydroquinazolin-2-yl)-2-(3,5-difluorophenyl)ethyl)-2-((3bS,4aR)-3-(difluoromethyl)-5,5-difluoro-3b,4,4a,5-tetrahydro-1H-cyclopropa[3,4]cyclopenta[1,2-c]pyrazol-1-yl)acetamide] | > 1000 | – | pEC50 ([2]; Table 1a): 7.14 |
| O=C(Cn1nc(C(F)F)c2c1C(F)(F)[C@@H]1C[C@H]21)N[C@@H](Cc1cc(F)cc(F)c1)c1nc2ncccc2c(=O)n1-c1ccc2c(c1)C(=O)NC2 [Example 31, 2-[(2S,4R)-9-(difluoromethyl)-5,5-difluoro-7,8-diazatricyclo[4.3.0.0^2,4]nona-1(6),8-dien-7-yl]-N-[(1S)-2-(3,5-difluorophenyl)-1-[4-oxo-3-(3-oxo-2,3-dihydro-1H-isoindol-5-yl)-3H,4H-pyrido[2,3-d]pyrimidin-2-yl]ethyl]acetamide] | > 10000 | 9.00 | – |
| Cn1nc(NS(C)(=O)=O)c2c(Cl)ccc(-n3c([C@H](Cc4cc(F)cc(F)c4)NC(=O)Cn4nc(C(F)F)c5c4C(F)(F)[C@@H]4C[C@H]54)nc4ccc(Cl)c(F)c4c3=O)c21 (mixture of isomers) [Example 175, N—((S)-1-(6-chloro-3-(4-chloro-1-methyl-3-(methylsulfonamido)-1H-indazol-7-yl)-5-fluoro-4-oxo-3,4-dihydroquinazolin-2-yl)-2-(3,5-difluorophenyl)ethyl)-2-((3bS,4aR)-3-(difluoromethyl)-5,5-difluoro-3b,4,4a,5-tetrahydro-1H-cyclopropa[3,4]cyclopenta[1,2-c]pyrazol-1-yl)acetamide] | > 1000 | 7.96 | – |
| Cn1nc(NS(C)(=O)=O)c2c(Cl)ccc(-n3c([C@H](Cc4cc(F)cc(F)c4)NC(=O)Cn4nc(C(F)F)c5c4C(F)(F)[C@@H]4C[C@H]54)nc4cc(C(C)(C)C)ccc4c3=O)c21 (mixture of isomers) [Example 215, N—((S)-1-(7-(tert-Butyl)-3-(4-chloro-1-methyl-3-(methylsulfonamido)-1H-indazol-7-yl)-4-oxo-3,4-dihydroquinazolin-2-yl)-2-(3,5-difluorophenyl)ethyl)-2-((3bS,4aR)-3-(difluoromethyl)-5,5-difluoro-3b,4,4a,5-tetrahydro-1H-cyclopropa[3,4]cyclopenta[1,2-c]pyrazol-1-yl)acetamide] | > 1000 | – | pEC50 ([2]; Table 1a): 6.45 |
| Cn1nc(NS(C)(=O)=O)c2c(Cl)ccc(-n3c([C@H](Cc4cc(F)cc(F)c4)NC(=O)Cc4c[nH]c5ccc(F)cc45)nc4ncccc4c3=O)c21 [Example 51, N-[(1S)-1-[3-(4-chloro-3-methanesulfonamido-1-methyl-1H-indazol-7-yl)-4-oxo-3H,4H-pyrido[2,3-d]pyrimidin-2-yl]-2-(3,5-difluorophenyl)ethyl]-2-(5-fluoro-1H-indol-3-yl)acetamide] | > 1000 | 8.98 | – |
| CCOc1ccc2c(=O)n(-c3ccc(Cl)c4c(NS(C)(=O)=O)nn(C)c34)c([C@H](Cc3cc(F)cc(F)c3)NC(=O)Cn3ccc(C4CC4)n3)nc2n1 (single isomer, unassigned) [Example 59.1] | > 1000 | 7.33 | – |
| Cc1cc(F)c2c(=O)n(-c3ccc(Cl)c4c(NS(C)(=O)=O)nn(C)c34)c(C(Cc3cc(F)cc(F)c3)NC(=O)Cn3nc(C(F)F)c4c3C(F)(F)[C@@H]3C[C@H]43)nc2c1 (mixture of isomers) [Example 171, N—((S)-1-(3-(4-chloro-1-methyl-3-(methylsulfonamido)-1H-indazol-7-yl)-5-fluoro-7-methyl-4-oxo-3,4-dihydroquinazolin-2-yl)-2-(3,5-difluorophenyl)ethyl)-2-((3bS,4aR)-3-(difluoromethyl)-5,5-difluoro-3b,4,4a,5-tetrahydro-1H-cyclopropa[3,4]cyclopenta[1,2-c]pyrazol-1-yl)acetamide] | > 1000 | 8.40 | – |
| COc1c(F)ccc2c(=O)n(-c3ccc(Cl)c4c(NS(C)(=O)=O)nn(C)c34)c([C@H](Cc3cc(F)cc(F)c3)NC(=O)Cn3ccc(C4CC4)n3)nc12 (single isomer, unassigned) [Example 111] | > 1000 | – | pEC50 ([2]; Table 1a): 7.03 |
| COc1c(F)cc2c(=O)n(-c3ccc(Cl)c4c(NS(C)(=O)=O)nn(C)c34)c(C(Cc3cc(F)cc(F)c3)NC(=O)Cn3nc(C(F)F)c4c3C(F)(F)[C@@H]3C[C@H]43)nc2c1F (stereo partly drawn) [Example 113] | > 1000 | 8.07 | – |
| COc1cc(F)c2c(=O)n(-c3ccc(Cl)c4c(NS(C)(=O)=O)nn(C)c34)c([C@H](Cc3cc(F)cc(F)c3)NC(=O)Cn3nc(C(F)F)c4c3C(F)(F)[C@@H]3C[C@H]43)nc2c1 (mixture of isomers) [Example 185, N—((S)-1-(3-(4-chloro-1-methyl-3-(methylsulfonamido)-1H-indazol-7-yl)-5-fluoro-7-methoxy-4-oxo-3,4-dihydroquinazolin-2-yl)-2-(3,5-difluorophenyl)ethyl)-2-((3bS,4aR)-3-(difluoromethyl)-5,5-difluoro-3b,4,4a,5-tetrahydro-1H-cyclopropa[3,4]cyclopenta[1,2-c]pyrazol-1-yl)acetamide] | > 1000 | 7.06 | – |
| COc1cccc2nc([C@H](Cc3cc(F)cc(F)c3)NC(=O)Cn3nc(C(F)F)c4c3C(F)(F)[C@@H]3C[C@H]43)n(-c3ccc(Cl)c4c(NS(C)(=O)=O)nn(C)c34)c(=O)c12 (mixture of isomers) [Example 169, N—((S)-1-(3-(4-chloro-1-methyl-3-(methylsulfonamido)-1H-indazol-7-yl)-5-methoxy-4-oxo-3,4-dihydroquinazolin-2-yl)-2-(3,5-difluorophenyl)ethyl)-2-((3bS,4aR)-3-(difluoromethyl)-5,5-difluoro-3b,4,4a,5-tetrahydro-1H-cyclopropa[3,4]cyclopenta[1,2-c]pyrazol-1-yl)acetamide] | > 1000 | – | pEC50 ([2]; Table 1a): 6.92 |
| O=C(Cn1nc(C(F)F)c2c1C(F)(F)[C@@H]1C[C@H]21)N[C@@H](Cc1cc(F)cc(F)c1)c1nc2cn[nH]c2cc1-c1ccc(Cl)c(C(=O)NS(=O)(=O)C2CCCC2)c1 [Example 10.21, 2-Chloro-N-(cyclopentylsulfonyl)-5-(5-((S)-1-(2-((3bS,4aR)-3-(difluoromethyl)-5,5-difluoro-3b,4,4a,5-tetrahydro-1H-cyclopropa[3,4]cyclopenta[1,2-c]pyrazol-1-yl)acetamido)-2-(3,5-difluorophenyl)ethyl)-1H-pyrazolo[4,3-b]pyridin-6-yl)benzamide] | – | – | CC50 at 4 days [1, 4]: > 10000 nM; pEC50 ([2]; Renilla, NL43, Table 1): 6.62 |
| Cn1nc(NS(C)(=O)=O)c2c(Cl)ccc(-c3cc4[nH]cc(Cl)c4nc3C(Cc3cc(F)cc(F)c3)NC(=O)Cn3nc(C(F)F)c4c3C(F)(F)[C@@H]3C[C@H]43)c21 (stereo partly drawn) [Example 88] | > 10000 | 9.21 | – |
| Cn1nc(NS(C)(=O)=O)c2c(Cl)ccc(-c3cc4ccccc4nc3[C@H](Cc3cc(F)cc(F)c3)NC(=O)Cc3c[nH]c4ccc(O)cc34)c21 [Example 10.17] | – | – | CC50 at 4 days [1, 4]: > 10000 nM; pEC50 ([2]; Renilla, NL43, Table 1): 8.62 |
| Cn1nc(NS(C)(=O)=O)c2c(Cl)ccc(-c3cc4[nH]cc(Cl)c4nc3[C@H](Cc3cc(F)cc(F)c3)NC(=O)Cn3nc(C(F)F)c4c3C(F)(F)[C@@H]3C[C@H]43)c21 (single isomer, unassigned) [Example 89] | > 10000 | 9.18 | – |
| C[Si](C)(C)CCOCn1ncc2nc(C(Cc3cc(F)cc(F)c3)NC(=O)Cc3c[nH]c4ccc(F)cc34)c(-c3ccc4scnc4c3)cc21 (stereo not drawn) [Int 6a, N-(1-(6-(benzo[d]thiazol-5-yl)-1-((2-(trimethylsilyl)ethoxy)methyl)-1H-pyrazolo[4,3-b]pyridin-5-yl)-2-(3,5-difluorophenyl)ethyl)-2-(5-fluoro-1H-indol-3-yl)acetamide] | – | – | CC50 at 4 days ([1]; human; Table 1; uninfected MT2 cells, day 4, XTT): 29200 nM; pEC50 ([2]; Renilla, NL43, Table 1): 6.96 |
| O=C(Cn1nc(C(F)F)c2c1C(F)(F)[C@@H]1C[C@H]21)N[C@@H](Cc1cc(F)cc(F)c1)c1nc2cn[nH]c2cc1-c1ccc(Cl)c(C(=O)O)c1 [Example 10.11, 2-Chloro-5-(5-((S)-1-(2-((3bS,4aR)-3-(difluoromethyl)-5,5-difluoro-3b,4,4a,5-tetrahydro-1H-cyclopropa[3,4]cyclopenta[1,2-c]pyrazol-1-yl)acetamido)-2-(3,5-difluorophenyl)ethyl)-1H-pyrazolo[4,3-b]pyridin-6-yl)benzoic acid] | – | – | CC50 at 4 days [1, 4]: > 10000 nM; pEC50 ([2]; Renilla, NL43, Table 1): 6.09 |
| CN1CCN(S(=O)(=O)c2ccc(-c3cc4[nH]ncc4nc3[C@H](Cc3cc(F)cc(F)c3)NC(=O)Cn3nc(C(F)F)c4c3C(F)(F)[C@@H]3C[C@H]43)cc2)CC1 [Example 28, 2-((3bS,4aR)-3-(difluoromethyl)-5,5-difluoro-3b,4,4a,5-tetrahydro-1H-cyclopropa[3,4]cyclopenta[1,2-c]pyrazol-1-yl)-N—((S)-2-(3,5-difluorophenyl)-1-(6-(4-((4-methylpiperazin-1-yl)sulfonyl)phenyl)-1H-pyrazolo[4,3-b]pyridin-5-yl)ethyl)acetamide] | > 10000 | 7.70 | – |
